Values quoted from earlier work as cited in patent publication US20210308436A1, “COMPLETE UPPER RESPIRATORY TRACT CLEANSING SYSTEM AND ITS USE” (priority 2013, published 2021).
Structures can show the parent of a compound that is named as a salt.

System: perennial allergic rhinitis
Details: 1% solution in normal saline, once every 48 hours for 4 weeks, vs placebo wash (normal saline only)

CN[C@@H](C)[C@H](O)c1ccccc1 [ephedrine hydrochloride]
peak nasal inspiratory flow rates: significant improvement
symptom scores: significant improvement
